Where two headings read alike, the source gives them in different places.
Key:
JJN3 cell line = experiment: Cell viability by CellTiter-Blue, JJN3; assay type: cell-based, human; settings: 72 h; for IC50: Homo sapiens, JJN-3, cell viability, CellTiter-Blue, doses 0.014 to 10 mM
Procedure: (§1) Cellular toxicity was measured in response to either melflufen or melphalan in the amyloidosis patient-derived light chain secreting ALMC-1 and ALMC-2 cell lines, and the light chain secreting cell line JJN3.
(§2) Cells were plated in a 96-well format in the presence of the indicated compound in doses ranging from 0.014 to 10 mM for 72 hours at 37° C. Cell viability was determined by CellTiter-Blue™ using the manufacturer's standard protocol. Lambda and kappa light chain secretion was measured in the supernatant of cells by ELISA.
(§3) In more detail, for each cell line (JJN3, ALMC-1 and ALMC-2) cells were harvested, washed, re-suspended into full growth media and counted. The cells were seeded at the cell densities shown in Table 1, below, into the inner 60 wells of a 96-well assay plates (Corning, black-wall plates, Cat #3904) in 50 μl/well aliquots. The plates were incubated overnight at 37° C. in 5% humidified CO2. 10 mM stocks of melphalan or melflufen-HCl were used, and sub-aliquots were prepared from the 10 mM stocks of melphalan or melflufen-HCl by diluting the stock. The diluted stock was added into cell culture media at the indicated concentrations for the experiment (0.014 to 10 mM).
50 microliters per well of compound/vehicle dilutions were added to the plates in replicates of 3 and incubated for 72 h at 37° C. in 5% humidified CO2. To develop the plates after 72 h, 20 μl of CellTiter-Blue™ reagent was added to each test/blank well. The plates were incubated at 37° C., 5% humidified CO2 for 1.5/3 h. Fluorescence was measured using a VarioSkan Flash plate reader (570 nm excitation wavelength, 600 nm emission wavelength).

[1] = system: MM.1S, RPMI-8826, U266 and ALMC-2 cells; experiment: Apoptosis and unfolded protein response (UPR) markers in malignant cell lines; assay type: cell-based, human; settings: all cell lines tested; 6 h, 12 h or 24 h
Procedure: The toxic effects of melflufen and melphalan were compared in malignant cell lines, including RPMI-8826, ALMC-2, MM1S, and U266 to confirm enhanced toxicity of melflufen compared to melphalan. ALMC-2 cells are derived from an amyloidosis patient. MM.1S, RPMI-8826, U266 or ALMC-2 cells were incubated in the presence or absence of melflufen-HCl or melphalan at the indicated concentrations in FIG. 5A for 6 h, 12 h or 24 h. Cells were then harvested and apoptosis and cell death in response to melflufen and melphalan were measured by Annexin V/propidium iodide and live/dead cell staining by flow cytometry, as well as analysis of cleaved caspases 3, 8, and 9 and PARP by western blot. Effects of melflufen and melphalan on the UPR were examined by analysis of UPR associated molecules including phosphorylated eIF2a, ATF4, IRE1a and PERK by immunoblot analysis using commercially available detection reagents and standard protocols, and ATF4, ATF6, PERK, IRE1 and CHOP by real time qPCR with gene specific primer sets. In addition, XBP-1 splicing was evaluated by PCR analysis.

[2] = system: lambda light chain secretion in ALMC-2 cells; experiment: Human Lambda ELISA of light chain secretion, ALMC-2; assay type: cell-based; settings: 72 h; for IC50: Homo sapiens, ALMC2, light chain secretion in supernatant
Procedure: as §2, §3
(§4) For analysis of secreted proteins, 72 h after incubation, the cells were pelleted by centrifugation at 300 RCF, 4° C. for 5 min and the supernatant taken and used immediately for ELISA analysis using commercial ELISA kits (below) and the manufacturer's protocols: • Human Kappa ELISA (Bethyl Laboratories, #E80-115) • Human Lambda ELISA (Bethyl Laboratories, #E80-116)

ALMC-2 cell line = experiment: Cell viability by CellTiter-Blue, ALMC-2; assay type: cell-based, human; settings: 72 h
Procedure: as §1, §2
as §3, with “The diluted stock was added into cell culture media at the indicated concentrations for the experiment (0.014 to 10 mM).” left out
(§5) 50 microliters per well of compound/vehicle dilutions were added to the plates in replicates of 3 and incubated for 72 h at 37° C. in 5% humidified CO2. […] Fluorescence was measured using a VarioSkan Flash plate reader (570 nm excitation wavelength, 600 nm emission wavelength).

[3] = system: kappa light chain secretion in JJN3 cells; experiment: Human Kappa ELISA of light chain secretion, JJN3; assay type: cell-based; settings: 72 h
Procedure: as §2, §3, §4

[4] = system: plasma cells (CD138+ cells) within bone marrow mononuclear cell samples from AL amyloidosis patients; experiment: Multiplexed high throughput flow cytometry cytotoxicity assay on patient-derived bone marrow mononuclear cells; assay type: cell-based, human; settings: for EC50: Homo sapiens; for Cytotoxicity compared to melphalan: in vitro AL amyloidosis cell model, identical concentrations; for Response of plasma cells (CD138+ cells) to treatment: 1 to 100,000 nM
Procedure: Viably frozen bone marrow mononuclear cells (MNC) from 11 amyloidosis patients were received from a biobank.
Viably frozen cells were thawed and incubated overnight to exclude apoptotic cells. On Day 1, a homogeneous cell suspension at a density of 2×10^6 cells/ml was prepared in RPMI 1640 medium (Lonza) supplemented with 10% fetal bovine serum, 2 mM L-glutamine, penicillin (100 U/ml), streptomycin (100 μg/ml) and 25% conditioned medium from the HS-5 human BM stromal cell line. Melflufen powders were stored in pre-weighted amounts in vials in oxygen and moisture free storage pods. Fresh 10 mM melflufen aliquots were prepared in DMSO. Serial dilutions were prepared in cell culture media and immediately transferred to 96 well plate containing mononuclear cells.
A multiplexed high throughput flow cytometer based assay (iQue® Screener PLUS) was applied, allowing simultaneous monitoring of drug responses in multiple hematopoietic cell subsets. A panel of eight antibodies against CD8, CD14, CD19, CD38, CD45, CD56, CD138 and CD269 were purchased. Annexin-V and 7-AAD were included to exclude dead or apoptotic cells from the analysis. Optimal antibody concentrations were determined and fluorescence compensations were computed to correct spectral overlaps between different fluorochromes. The plates containing melflufen treated cells were incubated in a humidified environment at 37° C. and 5% CO2. After 72 h, antibody cocktails were added to the wells and incubated for 30 min before the plates were read with the iQue® Screener PLUS instrument (Intellicyt®). The data was analyzed using ForeCyt software (Intellicyt). Graphpad Prism 7.0 to generate dose response graphs. Singlet mononuclear cells were subjected to dead and apoptotic cell exclusion using DNA staining dye 7-AAD and expression of Annexin-V surface antigens. Live cell counts for each cell populations were used to analyse effect of different doses on cell viability. Surviving cell fraction were computed by normalizing with viability of untreated cells for each cell subsets.
Melflufen was tested in six concentration over 100,000-fold dilutions (1 to 100,000 nM). Out of 12 cell samples tested, two samples were excluded due to poor viability. The viable samples were assigned the reference numbers AL-1886, AL-2983, AL-4839_2, AL-4839_3, AL-4847, AL-5691, AL-5716, AL-5807, AL-7219, AL-400081.

ALMC-1 cell line = experiment: Cell viability by CellTiter-Blue, ALMC-1; assay type: cell-based, human; settings: 72 h
Procedure: as §1, §2
as §3, with “The diluted stock was added into cell culture media at the indicated concentrations for the experiment (0.014 to 10 mM).” left out
as §5

[5] = system: lambda light chain secretion in ALMC-1 cells; experiment: Human Lambda ELISA of light chain secretion, ALMC-1; assay type: cell-based; settings: 72 h; for IC50: Homo sapiens, ALMC1, light chain secretion in supernatant
Procedure: as §2, §3, §4

AL amyloidosis = settings: cited from earlier work

CCOC(=O)[C@H](Cc1ccc(F)cc1)NC(=O)[C@@H](N)Cc1ccc(N(CCCl)CCCl)cc1.Cl [melflufen, L-Melphalanyl-4-fluoro-L-phenylalanine ethyl ester]
IC50 (JJN3 cell line): 1.2 µM | Sensitivity compared with melphalan (JJN3 cell line; JJN3): increased sensitivity | Sensitivity with regard to inducing apoptosis, XBP-1 splicing and markers of UPR and apoptosis, compared to melphalan [1]: significantly more sensitive to melflufen than melphalan | Inhibition of light chain secretion compared to melphalan ([2]; ALMC-2): superior inhibition | IC50 [2]: 0.45 µM | Sensitivity compared with melphalan (ALMC-2 cell line; ALMC-2): increased sensitivity | IC50 (ALMC-2 cell line; Homo sapiens, ALMC2, cell viability, CellTiter-Blue, doses 0.014 to 10 mM): 1.2 µM | IC50 ([3]; Homo sapiens, JJN-3, light chain secretion in supernatant): 2.9 µM | Inhibition of light chain secretion compared to melphalan ([3]; JJN3): superior inhibition | EC50 ([4]; 72 h, sample AL-2983, 72 h, read-out: EC50, survival of plasma cells (CD138+ cells)): 0.007 µM | EC50 ([4]; 72 h, sample AL-4847, 72 h, read-out: EC50, survival of plasma cells (CD138+ cells)): 0.032 µM | EC50 ([4]; 72 h, sample AL-5807, 72 h, read-out: EC50, survival of plasma cells (CD138+ cells)): 0.001 µM | EC50 ([4]; cell samples obtained from a population of AL amyloidosis patients, lowest value, read-out: EC50 values as low as, in vitro AL amyloidosis cell model): ≥ 0.001 µM | Cytotoxicity compared to melphalan [4]: at least 100 times | Cytotoxicity compared to melphalan ([4]; listed as Melflufen): 100 times | Cytotoxicity in in vitro AL amyloidosis cell model ([4]; plasma cells obtained from patients): highly cytotoxic | Response of plasma cells (CD138+ cells) to treatment ([4]; samples AL-1886, AL-4839_2, AL-4839_3, AL-5716 and AL-7219, 72 h): no notable response | Response of plasma cells (CD138+ cells) to treatment ([4]; samples AL-2983, AL-4847, AL-5691, AL-5807 and AL-400081, 72 h): displayed sensitivity | Sensitivity compared with melphalan (ALMC-1 cell line; ALMC-1): increased sensitivity | IC50 (ALMC-1 cell line; Homo sapiens, ALMC1, cell viability, CellTiter-Blue, doses 0.014 to 10 mM): 1.6 µM | Inhibition of light chain secretion compared to melphalan ([5]; ALMC-1): superior inhibition | IC50 [5]: 0.2 µM

N[C@@H](Cc1ccc(N(CCCl)CCCl)cc1)C(=O)O [melphalan, reference compound]
IC50 (JJN3 cell line): 5.4 µM | IC50 [2]: 5.1 µM | IC50 [5]: 2.5 µM | Treatment-related toxicity and mortality (AL amyloidosis; high-dose melphalan (for example 200 mg/m^2) with autologous hematopoietic stem cell rescue): significant treatment-related toxicity and high treatment related mortality rates | Plasma cell levels and survival (AL amyloidosis; melphalan (for example 20-25 mg/m^2) in combination with prednisolone): reduce plasma cell levels and increase survival rates by a few months
